Source: patent US10472341B2, “Bicyclic tetrahydrothiazepine derivatives useful for the treatment of neoplastic and/or infectious diseases” (APEIRON BIOLOGICS AG, priority 2015, dated 2019)

Columns and labels:
[1] = tested on: non-stimulated PBMCs; assay: Non-stimulated PBMCs: cytokine secretion and signs of T-cell activation; assay type: cell-based, human
Excerpt: This is an important finding for compounds that shall selectively act on T cells which have been activated by presence of antigen from pathogens or tumors, but shall not lead to an unwanted general activation of all T cells of a patient.

[2] = tested on: aCD3/aCD28-stimulated human CD4+-T-cells; assay: IL-2 production and activation markers in aCD3/aCD28 stimulated isolated human CD4+-T-cells; assay type: cell-based; conditions: IL-2 production at 3 μM compound
In short: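 CD4+ T cells isolated from buffy-coat PBMCs by microbeads were plated in Xvivo medium (1.5*10^5 cells/well) and stimulated with anti-CD3/28 mAbs plus compound. IL-2 measured by ELISA in supernatants at 24 h or 48 h; CD25 and proliferation by flow cytometry, CD69 at 24 h. Activity classes based on IL-2 at 3 μM compound.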

[3] = tested on: CD8 T cells & M21 tumor cells; assay: CD8 T cells from M21-prestimulated PBMCs restimulated with M21 tumor cells, with or without PD-1 blockade; assay type: cell-based, human
Description: For experiments investigating effects of PD-1 blockade, PBMCs were preincubated with 1 h UV-irradiated M21 tumor cells (50000 tumor cells per 1 Mill. PBMCs) for 14 days. […] Compounds and anti-PD-1 antibody (Nivolumab) or control antibody without direct effects on CD8 T cells (Ipilimumab) were added where indicated.
[…] Example 107, no antibody (no Ig), anti-PD-1 antibody (Nivolumab) or control antibody without direct effects on CD8 T cells (Ipilimumab) were included where indicated.

[4] = Ex. 107 0.03 μM, with Ipilimumab
[5] = Ex. 107 0.03 μM, with Nivolumab
[6] = Ex. 107 0.1 μM, with Ipilimumab
[7] = Ex. 107 0.3 μM, with Ipilimumab

Cl.N[C@H]1CS(=O)(=O)c2cc(F)c(C(=O)N[C@H]3CC3(F)F)cc2N(Cc2ccc(Cl)cc2)C1=O (single isomer, unassigned) [Example 107]
cytokine secretion or other signs of T-cell activation [1]: did not enhance cytokine secretion or other signs of T-cell activation | Activity Class CD4+ [2]: A (IL-2 production at 3 μM compound concentration >10 ng/mL) | enhancement of cytokine production ([3]; CD8 T cells in the absence of tumor cells): such effect was not detected in the absence of tumor cells | production of IL-2 and IFN-gamma ([3]; CD8 T cells restimulated with M21 tumor cells): enhanced production of both cytokines specifically upon tumor cell contact | Average Granzyme B ([3]; Ex. 107 0.03 μM, no Ig): 1.971 ng/mL | Average IFN-g ([3]; Ex. 107 0.03 μM, no Ig): 0.059 ng/mL | Average IL-2 ([3]; Ex. 107 0.03 μM, no Ig): 0.048 ng/mL | Average Number of living M21 tumor cells ([3]; Ex. 107 0.03 μM, no Ig): 16433 | Average Granzyme B [3, 4]: 1.639 ng/mL | Average IFN-g [3, 4]: 0.057 ng/mL | Average IL-2 [3, 4]: 0.041 ng/mL | Average Number of living M21 tumor cells [3, 4]: 21424 | Average Granzyme B [3, 5]: 5.522 ng/mL | Average IFN-g [3, 5]: 0.772 ng/mL | Average IL-2 [3, 5]: 0.105 ng/mL | Average Number of living M21 tumor cells [3, 5]: 5574 | Average Granzyme B ([3]; Ex. 107 0.1 μM, no Ig): 3.645 ng/mL | Average IFN-g ([3]; Ex. 107 0.1 μM, no Ig): 0.313 ng/mL | Average IL-2 ([3]; Ex. 107 0.1 μM, no Ig): 0.106 ng/mL | Average Number of living M21 tumor cells ([3]; Ex. 107 0.1 μM, no Ig): 9029 | Average Granzyme B [3, 6]: 3.905 ng/mL | Average IFN-g [3, 6]: 0.363 ng/mL | Average IL-2 [3, 6]: 0.100 ng/mL | Average Number of living M21 tumor cells [3, 6]: 10688 | Average Granzyme B ([3]; Ex. 107 0.1 μM, with Nivolumab): 9.246 ng/mL | Average IFN-g ([3]; Ex. 107 0.1 μM, with Nivolumab): 2.282 ng/mL | Average IL-2 ([3]; Ex. 107 0.1 μM, with Nivolumab): 0.258 ng/mL | Average Number of living M21 tumor cells ([3]; Ex. 107 0.1 μM, with Nivolumab): 3361 | Average Granzyme B ([3]; Ex. 107 0.3 μM, no Ig): 5.469 ng/mL | Average IFN-g ([3]; Ex. 107 0.3 μM, no Ig): 1.114 ng/mL | Average IL-2 ([3]; Ex. 107 0.3 μM, no Ig): 0.259 ng/mL | Average Number of living M21 tumor cells ([3]; Ex. 107 0.3 μM, no Ig): 3822 | Average Granzyme B [3, 7]: 6.001 ng/mL | Average IFN-g [3, 7]: 1.098 ng/mL | Average IL-2 [3, 7]: 0.222 ng/mL | Average Number of living M21 tumor cells [3, 7]: 4339 | Average Granzyme B ([3]; Ex. 107 0.3 μM, with Nivolumab): 12.040 ng/mL | Average IFN-g ([3]; Ex. 107 0.3 μM, with Nivolumab): 4.565 ng/mL | Average IL-2 ([3]; Ex. 107 0.3 μM, with Nivolumab): 0.590 ng/mL | Average Number of living M21 tumor cells ([3]; Ex. 107 0.3 μM, with Nivolumab): 1648 | Average Granzyme B ([3]; Ex. 107 1 μM, no Ig): 7.246 ng/mL | Average IFN-g ([3]; Ex. 107 1 μM, no Ig): 1.963 ng/mL | Average IL-2 ([3]; Ex. 107 1 μM, no Ig): 0.389 ng/mL | Average Number of living M21 tumor cells ([3]; Ex. 107 1 μM, no Ig): 2642 | Average Granzyme B ([3]; Ex. 107 1 μM, with Ipilimumab): 7.906 ng/mL | Average IFN-g ([3]; Ex. 107 1 μM, with Ipilimumab): 2.350 ng/mL | Average IL-2 ([3]; Ex. 107 1 μM, with Ipilimumab): 0.478 ng/mL | Average Number of living M21 tumor cells ([3]; Ex. 107 1 μM, with Ipilimumab): 2104 | Average Granzyme B ([3]; Ex. 107 1 μM, with Nivolumab): 12.985 ng/mL | Average IFN-g ([3]; Ex. 107 1 μM, with Nivolumab): 5.846 ng/mL | Average IL-2 ([3]; Ex. 107 1 μM, with Nivolumab): 0.954 ng/mL | Average Number of living M21 tumor cells ([3]; Ex. 107 1 μM, with Nivolumab): 1574 | Average Granzyme B ([3]; Ex. 107 3 μM, no Ig): 8.208 ng/mL | Average IFN-g ([3]; Ex. 107 3 μM, no Ig): 2.469 ng/mL | Average IL-2 ([3]; Ex. 107 3 μM, no Ig): 0.523 ng/mL | Average Number of living M21 tumor cells ([3]; Ex. 107 3 μM, no Ig): 2075 | Average Granzyme B ([3]; Ex. 107 3 μM, with Ipilimumab): 9.283 ng/mL | Average IFN-g ([3]; Ex. 107 3 μM, with Ipilimumab): 2.745 ng/mL | Average IL-2 ([3]; Ex. 107 3 μM, with Ipilimumab): 0.555 ng/mL | Average Number of living M21 tumor cells ([3]; Ex. 107 3 μM, with Ipilimumab): 2083 | Average Granzyme B ([3]; Ex. 107 3 μM, with Nivolumab): 14.403 ng/mL | Average IFN-g ([3]; Ex. 107 3 μM, with Nivolumab): 6.041 ng/mL | Average IL-2 ([3]; Ex. 107 3 μM, with Nivolumab): 1.285 ng/mL | Average Number of living M21 tumor cells ([3]; Ex. 107 3 μM, with Nivolumab): 1429 | Average Granzyme B ([3]; Ex. 107 10 μM, no Ig): 8.378 ng/mL | Average IFN-g ([3]; Ex. 107 10 μM, no Ig): 3.113 ng/mL | Average IL-2 ([3]; Ex. 107 10 μM, no Ig): 0.643 ng/mL | Average Number of living M21 tumor cells ([3]; Ex. 107 10 μM, no Ig): 2000 | Average Granzyme B ([3]; Ex. 107 10 μM, with Ipilimumab): 8.227 ng/mL | Average IFN-g ([3]; Ex. 107 10 μM, with Ipilimumab): 3.171 ng/mL | Average IL-2 ([3]; Ex. 107 10 μM, with Ipilimumab): 0.669 ng/mL | Average Number of living M21 tumor cells ([3]; Ex. 107 10 μM, with Ipilimumab): 2033 | Average Granzyme B ([3]; Ex. 107 10 μM, with Nivolumab): 13.079 ng/mL | Average IFN-g ([3]; Ex. 107 10 μM, with Nivolumab): 6.729 ng/mL | Average IL-2 ([3]; Ex. 107 10 μM, with Nivolumab): 1.596 ng/mL | Average Number of living M21 tumor cells ([3]; Ex. 107 10 μM, with Nivolumab): 1799 | reduction of viable tumor cells ([3]; example 107 in the presence of Nivolumab): even more pronounced and reached with lower compound concentrations in the presence of Nivolumab | enhancement of cytokine production ([3]; example 107 together with anti-PD-1 antibody (Nivolumab), CD8 T cells & M21): the enhancement of cytokine production was synergistic, i.e. more than additive | granzyme release upon tumor-cell contact ([3]; example 107 with PD-1 blockade, CD8 T cells & M21): mediated an synergistic enhancement of the cytotoxic effector granzyme release upon tumor-cell contact | viable tumor cells ([3]; immune cell cocultures with M21 tumor cells): strong reduction of viable tumor cells
